Results from patent US8288375B2, “Fungicidal bicyclic pyrazoles” (E.I. du Pont de Nemours and Company, priority 2007, dated 2012).

Experiments:
Fusarium graminearum = assay: whole plant or invertebrate; format: in vivo; conditions: for pest or weed control at 200 ppm: Fusarium graminearum, in Triticum aestivum, 192 h, read-out: Test C disease control rating; for Test C disease control rating: 200 ppm test suspension
Septoria tritici = assay: Test E: wheat leaf blotch, test suspension sprayed on wheat seedlings, disease rating; format: in vivo; conditions: 200 ppm test suspension; for pest or weed control at 200 ppm: Zymoseptoria tritici, 504 h;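 as to all read-outs here: 200 ppm unless marked * meaning 40 ppm or ** meaning 10 ppm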
[1] = test system: Erysiphe graminis f. sp. tritici; assay: Test A: wheat powdery mildew, test suspension sprayed on wheat seedlings, disease rating; format: in vivo; conditions: 200 ppm test suspension, 100 = 100% disease control, 0 = no control; for pest or weed control at 200 ppm: Blumeria graminis, 192 h
Pythium aphanidermatum = assay: Test L: bluegrass pythium blight, test suspension sprayed on bluegrass seedlings, disease rating; format: in vivo; conditions: 200 ppm test suspension; for pest or weed control at 200 ppm: Pythium aphanidermatum, 120 h;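 as to all read-outs here: 200 ppm unless marked * meaning 40 ppm or ** meaning 10 ppm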
Septoria nodorum = assay: Test D: wheat glume blotch, test suspension sprayed on wheat seedlings, disease rating; format: in vivo; conditions: 200 ppm test suspension; for pest or weed control at 200 ppm: Parastagonospora nodorum, 216 h
Phytophthora infestans = assay: whole plant or invertebrate; format: in vivo; conditions: for pest or weed control at 200 ppm: Phytophthora infestans, in Solanum lycopersicum, 120 h, read-out: Test J disease control rating; for Test J disease control rating: 200 ppm test suspension
[2] = test system: Puccinia recondite f sp. tritici; assay: Test B: wheat leaf rust, test suspension sprayed on wheat seedlings, disease rating; format: in vivo; conditions: 200 ppm test suspension; for pest or weed control at 200 ppm: Puccinia, 192 h;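 as to all read-outs here: 200 ppm unless marked * meaning 40 ppm or ** meaning 10 ppm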
Plasmopara viticola = assay: Test K: grape downy mildew, grape seedlings inoculated and then sprayed, disease rating; format: in vivo; conditions: 200 ppm test suspension
[3] = test system: Colletotrichum orbiculare; assay: Test F: cucumber Colletotrichum anthracnose, test suspension sprayed on cucumber seedlings, disease rating; format: in vivo; conditions: 200 ppm test suspension
Botrytis cinerea = assay: Test H: tomato Botrytis, test suspension sprayed on tomato seedlings, disease rating; format: in vivo; conditions: 200 ppm test suspension
Rhizoctonia oryzae = assay: Test I: turf brown patch, test suspension sprayed on creeping bent grass seedlings, disease rating; format: in vivo; conditions: 200 ppm test suspension

Row | Compound | pest or weed control at 200 ppm (Fusarium graminearum) [%] | pest or weed control at 200 ppm (Septoria tritici) [%] | pest or weed control at 200 ppm [1] [%] | melting point [°C] | pest or weed control at 200 ppm (Pythium aphanidermatum) [%] | pest or weed control at 200 ppm (Septoria nodorum) [%] | pest or weed control at 200 ppm (Phytophthora infestans) [%] | pest or weed control at 200 ppm [2] [%] | Test C disease control rating (Fusarium graminearum) [%] | Test E disease control rating (Septoria tritici) [%] | Test A disease control rating [1] [%] | Test K disease control rating (Plasmopara viticola) [%] | Test L disease control rating (Pythium aphanidermatum) [%] | Test F disease control rating [3] [%] | Test D disease control rating (Septoria nodorum) [%] | Test H disease control rating (Botrytis cinerea) [%] | Test J disease control rating (Phytophthora infestans) [%] | Test B disease control rating [2] [%] | Test I disease control rating (Rhizoctonia oryzae) [%]
1 | CC(C)Nc1nccc(-c2c(-c3ccc(F)cc3)nn3c2CCOC3)n1 [Compound 112, 4-[2-(4-fluorophenyl)-4,5-dihydro-7H-pyrazolo[1,5-c][1,3]oxazin-3-yl]-N-(1-methylethyl)-2-pyrimidinamine] | 100 | 99 | 0 | 167 to 169 | 99 | 93 | 99 | 95 |  |  |  |  |  |  |  |  |  |  | 
2 | c1ccc(-c2nn3c(c2-c2ccnc(NC4CC4)n2)COCC3)cc1 [Compound 117, N-cyclopropyl-4-(6,7-dihydro-2-phenyl-4H-pyrazolo[5,1-c][1,4]oxazin-3-yl)-2-pyrimidinamine] | 99 | 98 | 86 | 186 to 189 | 100 | 98 | 95 | 97 |  |  |  |  |  |  |  |  |  |  | 
3 | CC(C)(C)CNc1nccc(-c2c(-c3ccc(F)cc3)nn3c2CCCC3)n1 [compound 3] |  |  |  |  |  |  |  |  | 99 | 72 | 47 | 0 | 0 | 0 | 0 | 0 | 0 | 91 | 0
4 | Fc1ccc(-c2nn3c(c2-c2ccnc(NCC4CC4)n2)CCCC3)cc1 [Compound 24, N-(cyclopropylmethyl)-4-[2-(4-fluorophenyl)-4,5,6,7-tetrahydropyrazolo[1,5-a]pyridin-3-yl]-2-pyrimidinamine] |  | 98 | 97 | 124 to 125 | 0 | 98 | 72 |  |  |  |  |  |  |  |  |  |  |  | 
5 | CN(C)c1nccc(-c2c(-c3ccc(F)cc3)nn3c2CCCC3)n1 [compound 14] |  |  |  |  |  |  |  |  | 100 | 99 | 95 | 0 | 0 | 0 | 73 | 0 | 60 | 91 | 0
6 | Fc1ccc(-c2nn3c(c2-c2ccnc(NC4CCCC4)n2)CCCC3)cc1 [compound 7] |  |  |  |  |  |  |  |  | 100 | 99 | 82 | 0 | 0 | 90 | 98 | 82 | 93 | 99 | 0
7 | CC(C)Nc1nccc(-c2c(-c3ccccc3)nn3c2COCC3)n1 [Compound 116, 4-(6,7-dihydro-2-phenyl-4H-pyrazolo[5,1-c][1,4]oxazin-3-yl)-N-(1-methylethyl)-2-pyrimidinamine] | 100 | 91 | 90 | 185 to 187 | 100 | 92 | 95 | 93 |  |  |  |  |  |  |  |  |  |  | 
8 | Fc1ccc(-c2nn3c(c2-c2ccnc(Cl)n2)CCCN3)cc1 |  |  |  | 206 to 207 |  |  |  |  |  |  |  |  |  |  |  |  |  |  | 
9 | CC(CO)Nc1nccc(-c2c(-c3ccc(F)cc3)nn3c2COCC3)n1 (stereo not shown) [Compound 108, 2-[[4-[2-(4-fluorophenyl)-6,7-dihydro-4H-pyrazolo[5,1-c][1,4]oxazin-3-yl]-2-pyrimidinyl]amino]-1-propanol] | 98 | 99 | 43 | 124 to 126 | 100 | 87 | 77 | 99 |  |  |  |  |  |  |  |  |  |  | 
10 | CCCC(C)Nc1nccc(-c2c(-c3ccc(F)cc3)nn3c2CCCC3)n1 (stereo not shown) [compound 4] |  |  |  |  |  |  |  |  | 100 | 90 | 0 | 21 | 0 | 8 | 60 | 55 | 0 | 92 | 0
11 | Fc1ccc(-c2nn3c(c2-c2ccnc(NC4CCC4)n2)CCCC3)cc1 [Compound 51, N-cyclobutyl-4-[2-(4-fluorophenyl)-4,5,6,7-tetrahydropyrazolo[1,5-a]pyridin-3-yl]-2-pyrimidinamine] | 100 | 100 | 81 | 155 to 157 | 100 | 100 | 93 | 98 |  |  |  |  |  |  |  |  |  |  | 
12 | CCC(C)c1ccc(Nc2nccc(-c3c(-c4ccc(F)cc4)nn4c3CCCC4)n2)cc1 (stereo not shown) [compound 9] |  |  |  |  |  |  |  |  | 99 | 0 | 52 | 0 | 0 | 79 | 92 | 81 | 0 | 97 | 0
13 | CCCNc1nccc(-c2c(-c3ccc(F)cc3)nn3c2CCCC3)n1 [compound 11] |  |  |  |  |  |  |  |  | 100 | 98 | 93 | 0 | 100 | 83 | 99 | 97 | 100 | 99 | 44
14 | CNc1nccc(-c2c(-c3ccc(F)cc3)nn3c2CCCC3)n1 [compound 13] |  |  |  |  |  |  |  |  | 100 |  | 98 | 0 | 100 | 31 | 97 | 29 | 97 | 99 | 77
15 | CCC(C)Nc1nccc(-c2c(-c3ccc(F)cc3)nn3c2CCCC3)n1 (stereo not shown) [compound 19] |  |  |  |  |  |  |  |  | 100 |  | 26 | 0 | 93 | 66 | 98 | 74 | 31 | 99 | 0
